Test results from PMC3306502 (Cancer research, 2012).

Experiments:
[1] = system: AR-regulated genes; experiment: qRT-PCR analysis of AR-regulated genes in LNCaP/AR; details: absence of R1881; up to 10 μM
[2] = system: LNCaP/AR(cs) xenograft tumors; experiment: LNCaP/AR; details: for tumors with >50% regression (volume): 10 mg/kg/day daily-gavage
[3] = system: CRPC; details: chemotherapy-naïve and -treated CRPC patients; cited from earlier work
[4] = steady-state plasma- and brain-tissue levels in mice; details: 10 mg/kg/day; for Brain C24hr / Plasma C24hr: 28d daily-dosing; for Brain C24hr: 24h after final-dose; for Plasma C24hr: 24h after final-dose (brain study); for Kp: mouse, brain
[5] = steady-state plasma and tumor-tissue concentrations in LNCaP/AR; details: for Plasma C24hr / Tumor C24hr: 28d dosing, mean ± SD; for Plasma C24hr: 24h after final dose; for Tumor C24hr: LNCaP/AR(cs) xenograft tumor-tissue; for Kp: mouse, tumor, oral
[6] = system: CRPC; details: plus prednisone; CRPC patients previously treated with docetaxel; cited from earlier work
[7] = system: VCaP cells; experiment: VCaP proliferation assay; details: 7d treatment; for VCaP proliferation, antagonist-mode: with 30pM R1881; for VCaP proliferation, agonist-mode: without R1881
[8] = system: PC-3 prostate cancer cells; experiment: growth of AR-negative PC-3 cells
[9] = system: LNCaP/AR tumors; experiment: Ki67 IHC and TUNEL-staining of LNCaP/AR tumor-tissue from castrate mice; details: 10 mg/kg/day, 25d
[10] = system: AR; experiment: AR binding-assay using MDA-MB-453 cell-extracts
[11] = system: prostate and epididymis; details: 10 mg/kg/day for 28 days
[12] = system: LNCaP/AR(cs) xenografts; experiment: LNCaP/AR; details: 28d, intact (non-castrate) mice
[13] = dog pharmacokinetics
[14] = mouse pharmacokinetics
[15] = system: LNCaP/AR-luc xenograft tumors; experiment: luciferase-imaging of LNCaP/AR-luc xenograft tumors in castrate male mice; details: 10 mg/kg/day oral, 17 days

SMILES: CNC(=O)c1ccc(N2C(=S)N(c3ccc(C#N)c(C(F)(F)F)c3)C(=O)C2(C)C)cc1F [MDV3100, reference compound]
- agonist activity on AR-regulated gene expression [1]: did not exhibit agonist activity
- animals with >50% reduction in tumor-volume ([2]; 30 mg/kg/day, day 28, castrate mice): 3 of 19
- animals with >50% reduction in tumor-volume ([2]; mouse, in vivo): 12/19
- optimal biological dose (OBD: lowest dose yielding maximum efficacy) ([2]; mouse, in vivo): 30–100 mg/kg/day
- patients with significant serum-PSA responses (>50% decrease) [3]: > 50%
- Brain C24hr [4]: 2.01 ± 0.83 µg/g
- Plasma C24hr [4]: 10500 ± 2300 ng/mL
- Kp [4]: 0.188 ± 0.044
- Plasma C24hr ([5]; 1 mg/kg/day): 1080 ± 260 ng/mL
- Tumor C24hr ([5]; 1 mg/kg/day): 0.439 ± 0.12 µg/g
- Plasma C24hr ([5]; 10 mg/kg/day): 11000 ± 2500 ng/mL
- Tumor C24hr ([5]; 10 mg/kg/day): 3.39 ± 1.50 µg/g

SMILES: CC(=O)O[C@H]1CC[C@@]2(C)C(=CC[C@@H]3[C@@H]2CC[C@]2(C)C(c4cccnc4)=CC[C@@H]32)C1 [abiraterone acetate]
- increase in overall survival over control (prednisone only) [6]: 3.9 months

SMILES: CC(O)(CS(=O)(=O)c1ccc(F)cc1)C(=O)Nc1ccc(C#N)c(C(F)(F)F)c1 (stereo not drawn) [bicalutamide, reference compound]
- agonist activity on AR-regulated gene expression [1]: altered gene-expression consistent with its well-documented agonist activity
- tumors with >50% regression (volume) ([2]; day 28, castrate mice): 1/10
- VCaP proliferation, antagonist-mode [7]: only partially antagonized the effects of R1881
- VCaP proliferation, agonist-mode [7]: induced cell-proliferation in a dose-dependent manner

SMILES: CNC(=O)c1ccc(N2C(=S)N(c3cnc(C#N)c(C(F)(F)F)c3)C(=O)C23CCC3)cc1F [ARN-509]
- effect on growth of AR-negative PC-3 cells [8]: no significant effect on growth
- agonist activity on AR-regulated gene expression [1]: did not exhibit agonist activity
- increase in apoptotic rate (TUNEL) versus vehicle [9]: 10 fold
- AR binding in cell-extracts, ARN-509 vs bicalutamide [10]: does not differentiate between ARN-509 and bicalutamide
- apoptotic-rate in dog prostates (TUNEL-staining) [11]: no change in apoptotic-rate
- epididymis histopathology / spermatozoa [11]: contained minimal spermatozoa
- prostate histopathology [11]: lack of glandular secretory activity
- reduction in epididymis weight ([11]; not statistically significant): 1.7 fold
- reduction in weight of dog prostates ([11]; p<0.05 vs vehicle): 3 fold
- tumors with >50% regression (volume) ([2]; day 28, castrate mice): 8/10
- tumors no longer palpable ([2]; 10 mg/kg/day, day 28, of 10 tumors): 2
- animals with >50% reduction in tumor-volume ([2]; 100 mg/kg/day, day 28, castrate mice): 13/19
- optimal biological dose (OBD: lowest dose yielding maximum efficacy) ([2]; LNCaP/AR model): 10–30 mg/kg/day
- anti-tumor effect ([12]; 10 mg/kg/day): largely confined to stabilization of tumor-growth
- animals with robust tumor-regression (>50% reduction in starting tumor volume) ([12]; 30 mg/kg/day): 6/8
- Brain C24hr [4]: 0.479 ± 0.132 µg/g
- Plasma C24hr [4]: 1640 ± 300 ng/mL
- Kp [4]: 0.293 ± 0.063
- oral bioavailability [13]: high
- plasma half-life [13]: long
- Plasma C24hr ([5]; 1 mg/kg/day): 425 ± 160 ng/mL
- Tumor C24hr ([5]; 1 mg/kg/day): 0.991 ± 0.30 µg/g
- Plasma C24hr ([5]; 10 mg/kg/day): 3310 ± 980 ng/mL
- Tumor C24hr ([5]; 10 mg/kg/day): 3.26 ± 0.82 µg/g
- Kp ([5]; 1 mg/kg/day): 2.59 ± 0.11
- Kp ([5]; 10 mg/kg/day): 1.07 ± 0.44
- VCaP proliferation, antagonist-mode [7]: antagonized the proliferative effect of R1881
- VCaP proliferation, agonist-mode [7]: fails to stimulate proliferation
- oral bioavailability [14]: high
- plasma half-life [14]: long
- androgen-driven luciferase reporter-gene activity normalized to tumor volume, vs vehicle [15]: consistently reduced
